Experimental findings from patent US20250281446A1, “COMPOSITIONS, SYSTEMS, AND METHODS FOR TREATING CANCER IN STANDARD OF CARE AND/OR PROFIBROTIC CHEMOTHERAPEUTIC AGENT-NAÏVE PATIENTS USING TUMOR TREATING FIELDS AND CHEMOTHERAPEUTIC AGENTS” (Novocure GmbH, priority 2024, published 2025) are described below.

Experiment [1] concerns platinum-resistant ovarian cancer (PROC). Nature of the experiment: Randomized phase 3 study ENGOT-ov50/GOG-3029/INNOVATE-3 (NCT03940196): TTFields therapy with weekly paclitaxel vs weekly paclitaxel alone. The class given is in vivo, human. From the text:
This randomized phase 3 study investigated TTFields therapy with paclitaxel (TTFields+PTX) vs paclitaxel (PTX) in patients with platinum-resistant ovarian cancer (PROC).
To evaluate the safety and efficacy of TTFields therapy with weekly paclitaxel compared to weekly paclitaxel alone in PROC, the Phase 3 study design shown in FIG. 1 was utilized. ENGOT-ov50/GOG-3029/INNOVATE-3 (NCT03940196) enrolled adults with PROC, ≤5 prior lines of therapy (LOT), ≤2 prior LOT following platinum-resistance, and ECOG 0-1. Patients received TTFields (200 kHz; ≥18 hours/day)+PTX (80 mg/m^2) weekly or PTX. Primary endpoint was overall survival (OS). 558 patients were randomized to receive TTFields+PTX (n=280) or PTX (n=278) March 2019 to November 2021.
Patients were heavily pretreated in the ITT population, as 24.4% of patients had received 4+prior lines of therapy (LOT), and 65.9% had received prior bevacizumab. In the overall intention-to-treat population, TTFields therapy median duration was 15.9 (0.1-159.7) weeks.
Innovate-3 study excluding patients that had received doxorubicin prior to TTFields+Paclitaxel or Paclitaxel
This Example contains further data related to the study of Example 1. FIGS. 10-11 include data of PROC patients that had received doxorubicin prior to treatment or were Doxorubicin-/PLD-naïve and which received treatment comprising TTFields plus Paclitaxel or Paclitaxel alone. With Doxorubicin treatment prior to use, overall survival was 10.97 months with TTFields and 13.21 months without TTFields. […] In addition, without prior use of doxorubicin/PLD, the hazard ratio for TTFields was 0.593 with a p value of 0.005.

A further experiment concerns tumor. Nature of the experiment: Preclinical data (unpublished): tumor fibrosis and tissue conductivity.

Consider `CC(=O)O[C@H]1C(=O)[C@@]2(C)[C@H]([C@H](OC(=O)c3ccccc3)[C@]3(O)C[C@H](OC(=O)[C@H](O)[C@@H](NC(=O)c4ccccc4)c4ccccc4)C(C)=C1C3(C)C)[C@]1(OC(C)=O)CO[C@@H]1C[C@@H]2O` [PTX, paclitaxel], for which the overall survival in experiment [1] (Doxorubicin-/PLD-naïve group without prior use of doxorubicin (Example 2, FIGS. 10-11)) was 11.93 months; in experiment [1] (patients with Doxorubicin treatment prior to use (Example 2, FIG. 10)), 13.21 months. Also, the “overall survival, post-hoc analysis” value in experiment [1] (PLD-naïve subgroup (Example 1, FIG. 7), TTFields+PTX n=113, PTX n=88) was 11.7 months. In experiment [1] (overall ITT population, PROC patients, PTX 80 mg/m^2 weekly, TTFields 200 kHz, ≥18 hours/day), the “median overall survival (OS)” value was determined as 11.9 months.

Consider `COc1cccc2c1C(=O)c1c(O)c3c(c(O)c1C2=O)C[C@@](O)(C(=O)CO)C[C@@H]3O[C@H]1C[C@H](N)[C@H](O)[C@H](C)O1` [doxorubicin], for which, in the experiment with tumor, the tissue conductivity result is “changes tissue conductivity” and the tumor fibrosis entry is “induces tumor fibrosis”.
